Data as given in patent publication US20030186967A1, “Acylresorcinol derivatives are selective vitronectin receptor inhibitors” (American Home Products Corporation, priority 1998, published 2003).

molecular target: T1, Vitronectin receptor αVβ3 (Homo sapiens, UniProt P05106+P06756); test: Vitronectin Receptor αVβ3 Binding Assay; settings: read-out: VnR (IC50μM)
T1 construct: expressed in transfected cells; host or cells: 512P5 cells (plasma membrane preparation)
T1 sequence (P06756 31-889 limits assumed): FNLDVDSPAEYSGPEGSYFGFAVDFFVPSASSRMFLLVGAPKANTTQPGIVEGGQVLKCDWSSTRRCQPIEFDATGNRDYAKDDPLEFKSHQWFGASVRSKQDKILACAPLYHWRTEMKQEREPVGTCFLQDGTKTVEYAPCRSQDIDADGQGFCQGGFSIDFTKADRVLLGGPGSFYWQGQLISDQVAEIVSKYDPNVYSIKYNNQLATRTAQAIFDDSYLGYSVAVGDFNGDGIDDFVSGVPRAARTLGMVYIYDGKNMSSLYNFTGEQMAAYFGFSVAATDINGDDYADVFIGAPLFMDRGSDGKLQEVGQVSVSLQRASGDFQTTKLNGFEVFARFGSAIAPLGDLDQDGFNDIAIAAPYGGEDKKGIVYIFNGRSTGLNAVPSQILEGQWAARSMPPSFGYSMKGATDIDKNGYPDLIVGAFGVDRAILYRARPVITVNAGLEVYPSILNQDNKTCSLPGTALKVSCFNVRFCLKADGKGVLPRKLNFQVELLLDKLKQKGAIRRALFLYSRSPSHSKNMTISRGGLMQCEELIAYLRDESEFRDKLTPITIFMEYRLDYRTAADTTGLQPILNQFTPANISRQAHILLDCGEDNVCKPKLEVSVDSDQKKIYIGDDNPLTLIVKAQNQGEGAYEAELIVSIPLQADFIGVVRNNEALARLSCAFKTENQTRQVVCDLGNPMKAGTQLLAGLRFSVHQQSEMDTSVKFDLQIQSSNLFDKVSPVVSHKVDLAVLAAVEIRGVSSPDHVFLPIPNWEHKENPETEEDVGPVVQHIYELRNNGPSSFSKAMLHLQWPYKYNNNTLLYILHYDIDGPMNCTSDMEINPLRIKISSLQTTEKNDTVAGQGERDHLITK
T1 sequence (P06756 891-1048 partner limits assumed): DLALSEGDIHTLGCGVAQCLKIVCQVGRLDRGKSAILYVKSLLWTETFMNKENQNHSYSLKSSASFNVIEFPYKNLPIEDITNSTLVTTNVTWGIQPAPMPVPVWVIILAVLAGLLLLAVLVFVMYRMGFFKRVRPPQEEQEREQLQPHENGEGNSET
T1 sequence (P05106 27-788): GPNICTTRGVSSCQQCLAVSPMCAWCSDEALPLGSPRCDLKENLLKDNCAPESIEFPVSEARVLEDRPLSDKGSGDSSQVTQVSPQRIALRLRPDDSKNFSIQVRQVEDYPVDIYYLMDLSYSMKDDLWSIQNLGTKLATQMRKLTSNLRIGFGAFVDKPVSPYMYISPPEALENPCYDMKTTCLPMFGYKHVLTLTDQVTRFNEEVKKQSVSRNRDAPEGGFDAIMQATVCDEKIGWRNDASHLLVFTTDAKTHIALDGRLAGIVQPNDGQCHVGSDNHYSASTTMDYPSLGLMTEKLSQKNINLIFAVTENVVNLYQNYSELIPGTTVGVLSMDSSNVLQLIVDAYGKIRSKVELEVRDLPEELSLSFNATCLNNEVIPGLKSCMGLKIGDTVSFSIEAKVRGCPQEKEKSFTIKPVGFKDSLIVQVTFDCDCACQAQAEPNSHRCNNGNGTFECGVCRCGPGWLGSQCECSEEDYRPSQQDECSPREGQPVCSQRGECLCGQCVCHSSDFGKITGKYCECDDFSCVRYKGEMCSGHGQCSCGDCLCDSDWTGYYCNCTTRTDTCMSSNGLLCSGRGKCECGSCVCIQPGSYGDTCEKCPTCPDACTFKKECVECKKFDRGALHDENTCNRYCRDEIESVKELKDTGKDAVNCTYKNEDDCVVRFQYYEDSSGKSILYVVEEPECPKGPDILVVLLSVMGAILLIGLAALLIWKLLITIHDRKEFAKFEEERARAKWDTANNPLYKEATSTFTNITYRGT

| SMILES | IC50 [µM] |
| --- | --- |
| O=C(N[C@@H](CNC(=O)c1ccc(OCCNC2=NCCN2)cc1O)C(=O)O)OCc1ccccc1 [Example 96, (2S)-2-{[(benzyloxy)carbonyl]amino}-3-({4-[2-(4,5-dihydro-1H-imidazol-2-ylamino)ethoxy]-2-hydroxybenzoyl}amino)propanoic acid] | 0.119 |
| COC(=O)N[C@@H](CNC(=O)c1ccc(OCCNC2=NCCN2)cc1O)C(=O)O [Example 97, (2S)-3-({4-[2-(4,5-dihydro-1H-imidazol-2-ylamino)ethoxy]-2-hydroxybenzoyl}-amino)-2-[(methoxycarbonyl)amino]propanoic acid] | 0.77 |
| CCOC(=O)N[C@@H](CNC(=O)c1ccc(OCCNC2=NCCN2)cc1O)C(=O)O [Example 98, (2S)-3-({4-[2-(4,5-dihydro-1H-imidazol-2-ylamino)ethoxy]-2-hydroxybenzoyl}-amino)-2-[(ethoxycarbonyl)amino]propanoic acid] | 0.15 |
| CCCOC(=O)N[C@@H](CNC(=O)c1ccc(OCCNC2=NCCN2)cc1O)C(=O)O [Example 99, (2S)-3-({4-[2-(4,5-dihydro-1H-imidazol-2-ylamino)ethoxy]-2-hydroxybenzoyl}-amino)-2-[(propoxycarbonyl)amino]propanoic acid] | 0.088 |
| CC(C)OC(=O)N[C@@H](CNC(=O)c1ccc(OCCNC2=NCCN2)cc1O)C(=O)O [Example 100, (2S)-3-({4-[2-(4,5-dihydro-1H-imidazol-2-ylamino)ethoxy]-2-hydroxybenzoyl}-amino)-2-[(isopropoxycarbonyl)amino]propanoic acid] | 0.079 |
| C=CCOC(=O)N[C@@H](CNC(=O)c1ccc(OCCNC2=NCCN2)cc1O)C(=O)O [Example 101, (2S)-2-{[(allyloxy)carbonyl]amino}-3-({4-[2-(4,5-dihydro-1H-imidazol-2-ylamino)-ethoxy]-2-hydroxybenzoyl}amino)propanoic acid] | 0.094 |
| C=CCCOC(=O)N[C@@H](CNC(=O)c1ccc(OCCNC2=NCCN2)cc1O)C(=O)O [Example 102, (2S)-2-{[(but-3-enyloxy)carbonyl]amino}-3-({4-[2-(4,5-dihydro-1H-imidazol-2-ylamino)ethoxy]-2-hydroxybenzoyl}amino)propanoic acid] | 0.069 |
| C#CCOC(=O)N[C@@H](CNC(=O)c1ccc(OCCNC2=NCCN2)cc1O)C(=O)O [Example 103, (2S)-3-({4-[2-(4,5-dihydro-1H-imidazol-2-ylamino)ethoxy]-2-hydroxybenzoyl}-amino)-2-{[(prop-2-ynyloxy)carbonyl]amino}propanoic acid] | 0.21 |
| CCCCCCOC(=O)N[C@@H](CNC(=O)c1ccc(OCCNC2=NCCN2)cc1O)C(=O)O [Example 104, (2S)-3-({4-[2-(4,5-dihydro-1H-imidazol-2-ylamino)ethoxy]-2-hydroxybenzoyl}-amino)-2-{[(hexyloxy)carbonyl]amino}propanoic acid] | 0.086 |
| CCCCCCCCOC(=O)N[C@@H](CNC(=O)c1ccc(OCCNC2=NCCN2)cc1O)C(=O)O [Example 105, (2S)-3-({4-[2-(4,5-dihydro-1H-imidazol-2-ylamino)ethoxy]-2-hydroxybenzoyl}-amino)-2-{[(octyloxy)carbonyl]amino}propanoic acid] | 0.135 |
| CCCCOC(=O)N[C@@H](CNC(=O)c1ccc(OCCNC2=NCCN2)cc1O)C(=O)O [Example 106, (2S)-2-[(butoxycarbonyl)amino]-3-({4-[2-(4,5-dihydro-1H-imidazol-2-ylamino)ethoxy]-2-hydroxybenzoyl}amino)propanoic acid] | 0.114 |
| CC(C)COC(=O)N[C@@H](CNC(=O)c1ccc(OCCNC2=NCCN2)cc1O)C(=O)O [Example 107, (2S)-3-({4-[2-(4,5-dihydro-1H-imidazol-2-ylamino)ethoxy]-2-hydroxybenzoyl}-amino)-2-[(isobutoxycarbonyl)amino]propanoic acid] | 0.13 |

The next lines start with the values.

| IC50 [µM] | SMILES |
| --- | --- |
| 1.1 | CCCCNC(=O)N[C@@H](CNC(=O)c1ccc(OCCNC2=NCCN2)cc1O)C(=O)O [Example 108, (2S)-2-{[(butylamino)carbonyl]amino}-3-({4-[2-(4,5-dihydro-1H-imidazol-2-ylamino)ethoxy]-2-hydroxybenzoyl}amino)propanoic acid] |
| 0.251 | CCCCCCNC(=O)N[C@@H](CNC(=O)c1ccc(OCCNC2=NCCN2)cc1O)C(=O)O [Example 109, (2S)-3-({4-[2-(4,5-dihydro-1H-imidazol-2-ylamino)ethoxy]-2-hydroxybenzoyl}-amino)-2-{[(hexylamino)carbonyl]amino}propanoic acid] |
| 0.544 | CCCCCCCCNC(=O)N[C@@H](CNC(=O)c1ccc(OCCNC2=NCCN2)cc1O)C(=O)O [Example 110, (2S)-3-({4-[2-(4,5-dihydro-1H-imidazol-2-ylamino)ethoxy]-2-hydroxybenzoyl}-amino)-2-{[(octylamino)carbonyl]amino}propanoic acid] |
| 0.856 | C=CCNC(=O)N[C@@H](CNC(=O)c1ccc(OCCNC2=NCCN2)cc1O)C(=O)O [Example 111, (2S)-2-{[(allylamino)carbonyl]amino}-3-({4-[2-(4,5-dihydro-1H-imidazol-2-ylamino)ethoxy]-2-hydroxybenzoyl}amino)propanoic acid] |
| 1.09 | O=C(NC1CCCCC1)N[C@@H](CNC(=O)c1ccc(OCCNC2=NCCN2)cc1O)C(=O)O [Example 112, (2S)-2-{[(cyclohexylamino)carbonyl]amino}-3-({4-[2-(4,5-dihydro-1H-imidazol-2-ylamino)ethoxy]-2-hydroxybenzoyl}amino)propanoic acid] |
| 3.03 | O=C(NCc1ccccc1)N[C@@H](CNC(=O)c1ccc(OCCNC2=NCCN2)cc1O)C(=O)O [Example 113, (2S)-2-{[(benzylamino)carbonyl]amino}-3-({^4-[2-(4,5-dihydro-1H-imidazol-2-ylamino)ethoxy]-2-hydroxybenzoyl}amino)propanoic acid] |
| 0.258 | COc1ccccc1NC(=O)N[C@@H](CNC(=O)c1ccc(OCCNC2=NCCN2)cc1O)C(=O)O [Example 115, (2S)-3-({4-[2-(4,5-dihydro-1H-imidazol-2-ylamino)ethoxy]-2-hydroxybenzoyl}-amino)-2-{[(2-methoxyanilino)carbonyl]amino}propanoic acid] |
| 2.76 | O=C(Nc1ccccc1-c1ccccc1)N[C@@H](CNC(=O)c1ccc(OCCNC2=NCCN2)cc1O)C(=O)O [Example 116, (2S)-2-{[([1,1′-biphenyl]-2-ylamino)carbonyl]amino}-3-({4-[2-(4,5-dihydro-1H-imidazol-2-ylamino)ethoxy]-2-hydroxybenzoyl}amino)propanoic acid] |
| 1.52 | O=C(NCCc1ccccc1)N[C@@H](CNC(=O)c1ccc(OCCNC2=NCCN2)cc1O)C(=O)O [Example 117, (2S)-3-({4-[2-(4,5-dihydro-1H-imidazol-2-ylamino)ethoxy]-2-hydroxybenzoyl}-amino)-2-({[(2-phenylethyl)amino]carbonyl}amino)propanoic acid] |
| > 1 | CC(C)C(=O)N[C@@H](CNC(=O)c1ccc(OCCNC2=NCCN2)cc1O)C(=O)O [Example 118, (2S)-3-({4-[2-(4,5-dihydro-1H-imidazol-2-ylamino)ethoxy]-2-hydroxybenzoyl}-amino)-2-(isobutyrylamino)propanoic acid] |
